Patent US11072585B2 (PharmAkea, Inc., priority 2015, dated 2021)
Where a name gives a salt, the structure may show the parent alone.

The compounds below were run against human LOXL2 (Homo sapiens (Human), UniProt Q9Y4K0) (assay: Human LOXL2 amine oxidase activity assay (Amplex Red)). Settings: concentrated conditioned media from CHO cells stably expressing human LOXL2; 2 h at 37° C. with compound; DAP substrate.
Type: biochemical
Description: Example B-1: Human LOXL2 Amine Oxidase Activity Assay
LOXL2 amine oxidase activity is evaluated by measuring Amplex Red fluorescence using 10-20× concentrated conditioned media from CHO cells stably expressing human LOXL2. To assay for amine oxidase activity, 10 μL of the concentrated conditioned media is incubated with 2 μL of test compound in DMSO and 73 μL Assay Buffer (50 mM Borate Buffer, pH8) for 2 h at 37° C. After the 2 h incubation, 5 ul of 10 mM 1,5-Diaminopentane (DAP) diluted in Assay Buffer and 10 μl of Amplex Red Mix (8.5 μl Assay Buffer+0.5 μl of 10 mM Amplex Red+1 μl of 500 U/ml Horseradish Peroxidase) are added and the plate mixed and immediately placed on the FlexStaion for fluorescence measurements. Fluorescence is read in kinetic mode every 2 min for 1 hour at excitation=544 and emission=590. The amine oxidase activity is calculated from the slope of the linear portion of the curve.

Chain of human LOXL2 (Q9Y4K0 26-774): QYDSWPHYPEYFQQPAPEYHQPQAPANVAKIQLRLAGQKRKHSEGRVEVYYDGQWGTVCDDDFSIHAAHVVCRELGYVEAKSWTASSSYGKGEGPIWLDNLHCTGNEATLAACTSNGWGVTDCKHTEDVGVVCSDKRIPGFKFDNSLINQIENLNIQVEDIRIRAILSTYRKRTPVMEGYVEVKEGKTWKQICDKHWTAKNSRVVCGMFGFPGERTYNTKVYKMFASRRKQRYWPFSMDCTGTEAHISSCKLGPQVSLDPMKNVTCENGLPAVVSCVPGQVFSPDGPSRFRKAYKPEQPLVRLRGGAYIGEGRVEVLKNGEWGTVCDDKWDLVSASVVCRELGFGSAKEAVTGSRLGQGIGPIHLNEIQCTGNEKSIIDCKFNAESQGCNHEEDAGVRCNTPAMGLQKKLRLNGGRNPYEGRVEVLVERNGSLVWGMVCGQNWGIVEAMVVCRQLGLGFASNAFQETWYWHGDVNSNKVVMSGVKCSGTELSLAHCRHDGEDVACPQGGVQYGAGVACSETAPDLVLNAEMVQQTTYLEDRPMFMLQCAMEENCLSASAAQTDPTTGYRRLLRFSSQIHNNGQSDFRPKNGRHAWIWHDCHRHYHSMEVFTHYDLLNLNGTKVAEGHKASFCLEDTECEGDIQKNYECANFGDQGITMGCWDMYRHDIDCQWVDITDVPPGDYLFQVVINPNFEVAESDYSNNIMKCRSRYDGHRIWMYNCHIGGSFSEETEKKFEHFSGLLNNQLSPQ

Structure (SMILES)	IC50 [nM]
NCc1cc(Oc2cccc(C(=O)NCCO)c2)nc(C(F)(F)F)c1 [Compound 1-16, 3-((4-(Aminomethyl)-6-(trifluoromethyl)pyridin-2-yl)oxy)-N-(2-hydroxyethyl)benzamide hydrochloride]	< 300
NCc1cc(Oc2cccc(C(=O)N3CC[C@H](O)C3)c2)nc(C(F)(F)F)c1 [Compound 1-17, (S)-(3-((4-(Aminomethyl)-6-(trifluoromethyl)pyridin-2-yl)oxy)phenyl)(3-hydroxypyrrolidin-1-yl)methanone hydrochloride]	< 300
Cc1cc(=O)n(Cc2cc(CN)cc(C(F)(F)F)n2)c(=O)n1Cc1ccncn1 [Compound 1-243, 3-((4-(Aminomethyl)-6-(trifluoromethyl)pyridin-2-yl)methyl)-6-methyl-1-(pyrimidin-4-ylmethyl)pyrimidine-2,4(1H,3H)-dione hydrochloride]	300 to 1000
NCc1cc(Oc2cccc3c2ccn3CC(=O)N2CCNCC2)nc(C(F)(F)F)c1 [Compound 1-233, 2-(4-((4-(Aminomethyl)-6-(trifluoromethyl)pyridin-2-yl)oxy)-1H-indol-1-yl)-1-(piperazin-1-yl)ethan-1-one dihydrochloride]	300 to 1000
NCc1cc(Oc2cc(C(=O)N3C[C@@H](O)[C@H](F)C3)ccc2O)nc(C(F)(F)F)c1 (racemic) [Compound 1-229, Racemic-trans-(3-((4-(aminomethyl)-6-(trifluoromethyl)pyridin-2-yl)oxy)-4-hydroxyphenyl)(3-fluoro-4-hydroxypyrrolidin-1-yl)methanone hydrochloride]	300 to 1000
NCc1cc(Oc2cccc(C(=O)N3CCc4ccccc4C3)c2)nc(C(F)(F)F)c1 [Compound 1-11, (3-((4-(Aminomethyl)-6-(trifluoromethyl)pyridin-2-yl)oxy)phenyl)(3,4-dihydroisoquinolin-2(1H)-yl)methanone hydrochloride]	< 300
NCc1cc(Oc2cc(O)cc(C(=O)N3C[C@@H](O)[C@H](F)C3)c2)nc(C(F)(F)F)c1 (racemic) [Compound 1-230, Racemic-trans-(3-((4-(aminomethyl)-6-(trifluoromethyl)pyridin-2-yl)oxy)-5-hydroxyphenyl)(3-fluoro-4-hydroxypyrrolidin-1-yl)methanone hydrochloride]	< 300
NCc1cc(Oc2cccc(C(=O)N3CCC[C@@H]3C(=O)O)c2)nc(C(F)(F)F)c1 [Compound 1-25, (R)-1-(3-((4-(Aminomethyl)-6-(trifluoromethyl)pyridin-2-yl)oxy)benzoyl)pyrrolidine-2-carboxylic acid hydrochloride]	300 to 1000
CONC(=O)c1cccc(Oc2cc(CN)cc(C(F)(F)F)n2)c1 [Compound 1-219, 3-((4-(Aminomethyl)-6-(trifluoromethyl)pyridin-2-yl)oxy)-N-methoxybenzamide hydrochloride]	< 300
NCc1cc(Oc2cccc(C(=O)Nc3cncnc3)c2)nc(C(F)(F)F)c1 [Compound 1-226, 3-((4-(Aminomethyl)-6-(trifluoromethyl)pyridin-2-yl)oxy)-N-(pyrimidin-5-yl)benzamide hydrochloride]	< 300
NCc1cc(OC[C@H]2CCCN(C(=O)Nc3ccccc3)C2)nc(C(F)(F)F)c1 [Compound 1-45, (S)-3-(((4-(Aminomethyl)-6-(trifluoromethyl)pyridin-2-yl)oxy)methyl)-N-phenylpiperidine-1-carboxamide trifluoroacetate]	300 to 1000
COc1cc(Oc2cc(CN)cc(C(F)(F)F)n2)cc(C(=O)N2C[C@@H](O)[C@H](F)C2)c1 (racemic) [Compound 1-232, Racemic-trans-(3-((4-(aminomethyl)-6-(trifluoromethyl)pyridin-2-yl)oxy)-5-methoxyphenyl)(3-fluoro-4-hydroxypyrrolidin-1-yl)methanone hydrochloride]	300 to 1000
NCc1cc(O[C@H]2CCN(C(=O)Nc3ccccc3)C2)nc(C(F)(F)F)c1 [Compound 1-40, (S)-3-((4-(Aminomethyl)-6-(trifluoromethyl)pyridin-2-yl)oxy)-N-phenylpyrrolidine-1-carboxamide trifluoroacetate]	< 300
NCc1cc(Oc2cccc(C(=O)NO)c2)nc(C(F)(F)F)c1 [Compound 1-218, 3-((4-(Aminomethyl)-6-(trifluoromethyl)pyridin-2-yl)oxy)-N-hydroxybenzamide hydrochloride]	300 to 1000
NCc1cc(Oc2cccc(C(=O)O)c2)nc(C(F)(F)F)c1 [Compound 1-224, 3-((4-(Aminomethyl)-6-(trifluoromethyl)pyridin-2-yl)oxy)benzoic acid hydrochloride]	300 to 1000
NCc1cc(Oc2cccc(C(=O)NCc3nn[nH]n3)c2)nc(C(F)(F)F)c1 [Compound 1-13, N-((2H-Tetrazol-5-yl)methyl)-3-((4-(aminomethyl)-6-(trifluoromethyl)pyridin-2-yl)oxy)benzamide hydrochloride]	< 300
NCc1cc(Oc2cccc(C(=O)N3CCC(CO)CC3)c2)nc(C(F)(F)F)c1 [Compound 1-204, (3-((4-(Aminomethyl)-6-(trifluoromethyl)pyridin-2-yl)oxy)phenyl)(4-(hydroxymethyl)piperidin-1-yl)methanone hydrochloride]	< 300
Cc1cc(=O)oc2cc(NC(=O)c3cccc(Oc4cc(CN)cc(C(F)(F)F)n4)c3)ccc12 [Compound 1-249, 3-((4-(Aminomethyl)-6-(trifluoromethyl)pyridin-2-yl)oxy)-N-(4-methyl-2-oxo-2H-chromen-7-yl)benzamide hydrochloride]	< 300
COCC1CN(C(=O)c2cccc(Oc3cc(CN)cc(C(F)(F)F)n3)c2)C1 [Compound 1-206, (3-((4-(Aminomethyl)-6-(trifluoromethyl)pyridin-2-yl)oxy)phenyl)(3-(methoxymethyl)azetidin-1-yl)methanone hydrochloride]	< 300
NCc1cc(Oc2cccc(C(=O)N3CC(n4cccn4)C3)c2)nc(C(F)(F)F)c1 [Compound 1-12, (3-(1H-Pyrazol-1-yl)azetidin-1-yl)(3-((4-(aminomethyl)-6-(trifluoromethyl)pyridin-2-yl)oxy)phenyl)methanone trifluoroacetate]	< 300

The remaining lines, values ahead:

IC50 [nM]	Structure (SMILES)
< 300	CN(CCO)C(=O)c1cccc(Oc2cc(CN)cc(C(F)(F)F)n2)c1 [Compound 1-202, 3-((4-(Aminomethyl)-6-(trifluoromethyl)pyridin-2-yl)oxy)-N-(2-hydroxyethyl)-N-methylbenzamide hydrochloride]
< 300	C#C[C@@H](CC(=O)OC)NC(=O)c1cccc(Oc2cc(CN)cc(C(F)(F)F)n2)c1 [Compound 1-222, Methyl (R)-3-(3-((4-(aminomethyl)-6-(trifluoromethyl)pyridin-2-yl)oxy)benzamido)pent-4-ynoate hydrochloride]
< 300	CCc1cccc(NC(=O)c2cccc(Oc3cc(CN)cc(C(F)(F)F)n3)c2)c1 [Compound 1-245, 3-((4-(Aminomethyl)-6-(trifluoromethyl)pyridin-2-yl)oxy)-N-(3-ethylphenyl)benzamide hydrochloride]
< 300	NCc1cc(NCc2cccc(C(=O)Nc3ccccc3)c2)nc(C(F)(F)F)c1 [Compound 1-105, 3-(((4-(Aminomethyl)-6-(trifluoromethyl)pyridin-2-yl)amino)methyl)-N-phenylbenzamide hydrochloride]
< 300	NCc1cc(Oc2cccc(C(=O)NCCN3CCOC3=O)c2)nc(C(F)(F)F)c1 [Compound 1-28, 3-((4-(Aminomethyl)-6-(trifluoromethyl)pyridin-2-yl)oxy)-N-(2-(2-oxooxazolidin-3-yl)ethyl)benzamide]
< 300	NCc1cc(Oc2cccc(Oc3ccccc3)c2)nc(C(F)(F)F)c1 [Compound 1-3, (2-(3-Phenoxyphenoxy)-6-(trifluoromethyl)pyridin-4-yl)methanamine trifluoroacetate]
< 300	NCc1cc(Oc2cccc(Nc3ccccc3)c2)nc(C(F)(F)F)c1 [Compound 1-5, 3-((4-(Aminomethyl)-6-(trifluoromethyl)pyridin-2-yl)oxy)-N-phenylaniline]
< 300	NCc1cc(Oc2cccc(C(=O)N3CC[C@H](F)C3)c2)nc(C(F)(F)F)c1 [Compound 1-213, (S)-(3-((4-(Aminomethyl)-6-(trifluoromethyl)pyridin-2-yl)oxy)phenyl)(3-fluoropyrrolidin-1-yl)methanone hydrochloride]
< 300	NCc1cc(Oc2cccc(COc3ccccc3)c2)nc(C(F)(F)F)c1 [Compound 1-4, (2-(3-(Phenoxymethyl)phenoxy)-6-(trifluoromethyl)pyridin-4-yl)methanamine trifluoroacetate]
< 300	NCc1cc(Oc2cccc(C(=O)NCC3(O)CCC3)c2)nc(C(F)(F)F)c1 [Compound 1-201, 3-((4-(Aminomethyl)-6-(trifluoromethyl)pyridin-2-yl)oxy)-N-((1-hydroxycyclobutyl)methyl)benzamide hydrochloride]
< 300	NCc1cc(Oc2cccc(C(=O)N[C@@H]3CCC[C@@H]3O)c2)nc(C(F)(F)F)c1 [Compound 1-209, 3-((4-(Aminomethyl)-6-(trifluoromethyl)pyridin-2-yl)oxy)-N-((1R,2S)-2-hydroxycyclopentyl)benzamide hydrochloride]
< 300	CS(=O)(=O)CCNC(=O)c1cccc(CNc2cc(CN)cc(C(F)(F)F)n2)c1 [Compound 1-106, 3-(((4-(Aminomethyl)-6-(trifluoromethyl)pyridin-2-yl)amino)methyl)-N-(2-(methylsulfonyl)ethyl)benzamide hydrochloride]
